The source of these data is ChEMBL document CHEMBL1201862, “PubChem BioAssay data set” (2004).

Active and inactive are the calls of the source. Some results are limits rather than exact numbers.

The nature of test [1]: nonselective inhibitors of cellular cAMP signaling, dose response, counter-screen for MC4R biased antagonist project, cell-based, TR-FRET cAMP detection (AID 602305).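 Also: U2OS cells stimulated with forskolin near its EC80 as the cAMP inducer; potency is for inhibition of forskolin-stimulated cAMP signaling.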 In kind it is functional. (The purpose of a counterscreen is to sort out artefacts and off-target activity.)
A further test deals with Melanocortin receptor 4 (Homo sapiens, UniProt P32245). Description: MC4R antagonist potency on cAMP, dose response, cell-based, TR-FRET, biased antagonists (AID 602298).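 Also: antagonist potency against agonist-stimulated cAMP production.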 In kind it is functional. (In TR-FRET formats the signal depends on donor and acceptor labels being close together.)
For test [2], the system named is HEK293. The test can be described thus: cells. The settings on record: Homo sapiens.
In test [3] the test system is HEK293. The test can be described thus: cells. The settings on record: Homo sapiens. The source holds these as a separate data set.
Test [4] deals with T1, Endoribonuclease toxin MazF (Escherichia coli K-12, UniProt P0AE70).
T1 sequence (P0AE70 whole entry): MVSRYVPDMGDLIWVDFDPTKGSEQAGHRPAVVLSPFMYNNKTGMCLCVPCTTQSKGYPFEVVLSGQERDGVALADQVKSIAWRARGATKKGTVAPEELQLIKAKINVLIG
The test can be described thus: fluorescent RNA oligo signal without MazF, dose response, counter-screen for MazEF activator project, biochemical, fluorescence, single-stranded RNase substrate (AID 588502). In kind it is functional.

Test [5] concerns the target T1, Endoribonuclease toxin MazF. Description: MazF toxin RNase activators, dose response, biochemical, fluorescence, single-stranded RNA substrate, uHTS hits (AID 588481). In kind it is functional.
Test [6] addresses Peroxisome proliferator-activated receptor gamma/Nuclear receptor coactivator 1 (Homo sapiens, UniProt P37231). The test can be described thus: TR-FRET dose response biochemical High Throughput Screening assay for agonists of the steroid receptor coactivator 1 (SRC-1) recruitment by the peroxisome proliferator-activated receptor gamma (PPAR gamma): non-selective agonists. [Related pubchem assays (depositor defined):AID1300, AID1808, AID504735, AID631]. In kind it is protein assay.

Test [7] has as its target Peroxisome proliferator-activated receptor gamma/Nuclear receptor coactivator 2 (Homo sapiens, UniProt P37231). The test can be described thus: TR-FRET dose response biochemical High Throughput Screening assay for agonists of the steroid receptor coactivator 2 (SRC-2) recruitment by the peroxisome proliferator-activated receptor gamma (PPAR gamma): non-selective agonists. [Related pubchem assays: 1297, 1032 ]. The class given is functional.

Test [8] addresses Peroxisome proliferator-activated receptor gamma/Nuclear receptor coactivator 3 (Homo sapiens, UniProt P37231). Description: TR-FRET dose response biochemical High Throughput Screening assay for agonists of the steroid receptor coactivator 3 (SRC-3) recruitment by the peroxisome proliferator-activated receptor gamma (PPAR gamma): non-selective agonists. [Related pubchem assays: 1301 (Confirmation screen.), 1048 (Primary screen.)]. The class given is functional.

In test [9] the test system is HEK293. The test can be described thus: cells. The settings on record: Homo sapiens. This is another data set of the same source.
The target of test [10] is T2, Nucleotide-binding oligomerization domain-containing protein 1 (Homo sapiens, UniProt Q9Y239).
T2 sequence (Q9Y239 whole entry): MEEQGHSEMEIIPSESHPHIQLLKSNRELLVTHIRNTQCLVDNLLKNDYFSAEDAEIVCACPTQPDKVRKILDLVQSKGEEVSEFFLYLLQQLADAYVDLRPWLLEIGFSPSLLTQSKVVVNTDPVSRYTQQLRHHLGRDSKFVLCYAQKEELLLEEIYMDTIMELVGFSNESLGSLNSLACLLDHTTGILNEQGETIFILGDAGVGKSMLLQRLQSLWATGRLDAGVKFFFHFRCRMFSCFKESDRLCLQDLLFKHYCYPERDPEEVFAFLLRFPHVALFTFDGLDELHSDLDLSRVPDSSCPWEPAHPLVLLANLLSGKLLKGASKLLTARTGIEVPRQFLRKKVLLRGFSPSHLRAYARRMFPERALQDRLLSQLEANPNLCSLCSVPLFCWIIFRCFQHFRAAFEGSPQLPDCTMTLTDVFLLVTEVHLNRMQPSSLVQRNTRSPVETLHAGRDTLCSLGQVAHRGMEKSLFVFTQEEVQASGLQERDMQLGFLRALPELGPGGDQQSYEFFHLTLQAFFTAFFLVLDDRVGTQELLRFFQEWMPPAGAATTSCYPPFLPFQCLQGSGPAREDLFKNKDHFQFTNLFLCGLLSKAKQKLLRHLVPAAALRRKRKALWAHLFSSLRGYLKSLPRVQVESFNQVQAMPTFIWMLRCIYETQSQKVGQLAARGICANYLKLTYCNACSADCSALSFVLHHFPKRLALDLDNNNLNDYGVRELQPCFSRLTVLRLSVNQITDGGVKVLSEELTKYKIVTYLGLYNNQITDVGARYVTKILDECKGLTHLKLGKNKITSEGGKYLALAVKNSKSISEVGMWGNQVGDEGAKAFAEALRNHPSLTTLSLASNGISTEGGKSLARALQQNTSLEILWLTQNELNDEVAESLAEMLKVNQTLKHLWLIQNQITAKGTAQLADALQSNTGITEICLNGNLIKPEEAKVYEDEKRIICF
Description: NOD1 signaling inhibitors, SAR follow-up, revised (AID 2333). In kind it is functional.

The target of another test is Tumor necrosis factor (Homo sapiens, UniProt P01375). Description: TNFa-triggered NF-kB activation inhibitors, SAR follow-up, cell-based, revised (AID 2337). In kind it is functional.
Test [11] is described as follows: cytotoxicity toward NIH3T3 fibroblasts, dose response, counter-screen, cell-based, ATP luminescence, mouse fibroblasts (AID 2010).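 Also: cells exposed to compound for about 90 hours before reading.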 In kind it is functional.
The nature of test [12]: inhibitors of intracellular T. cruzi replication, confirmation, NIH3T3 host cells, beta-gal luminescence (AID 2044).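 Also: intracellular parasites grown in NIH/3T3 mouse fibroblasts as host cells; luminescent beta-galactosidase reporter signal from transgenic T. cruzi replicating inside host cells; inhibitors lower the luminescence signal.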 The class given is functional, cell-based.
Test [13] addresses T3, High affinity choline transporter 1 (Homo sapiens, UniProt Q9GZV3).
T3 sequence (Q9GZV3 whole entry): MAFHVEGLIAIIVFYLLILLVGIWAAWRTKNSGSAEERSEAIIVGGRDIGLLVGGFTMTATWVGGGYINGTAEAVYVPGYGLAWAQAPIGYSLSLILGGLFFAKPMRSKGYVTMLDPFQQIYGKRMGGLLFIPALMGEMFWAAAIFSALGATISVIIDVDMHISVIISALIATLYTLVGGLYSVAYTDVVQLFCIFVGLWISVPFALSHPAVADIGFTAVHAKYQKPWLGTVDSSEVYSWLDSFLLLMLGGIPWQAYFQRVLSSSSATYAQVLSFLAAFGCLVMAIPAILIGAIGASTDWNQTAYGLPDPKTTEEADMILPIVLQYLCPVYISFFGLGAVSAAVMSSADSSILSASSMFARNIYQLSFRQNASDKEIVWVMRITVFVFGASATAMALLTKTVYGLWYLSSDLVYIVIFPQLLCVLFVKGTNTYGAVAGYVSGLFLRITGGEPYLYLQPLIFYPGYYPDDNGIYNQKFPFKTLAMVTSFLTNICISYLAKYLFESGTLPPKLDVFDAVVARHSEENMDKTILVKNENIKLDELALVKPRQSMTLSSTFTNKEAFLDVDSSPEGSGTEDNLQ
The test can be described thus: CHT inhibitors, dose response, cell-based, 5-point CRC, membrane potential dye (AID 504840). The class given is functional.

Test [14] can be described thus: growth suppression of beta-catenin-knockout colon cells, dose response, cell-based, HCT116, human colon tumor (AID 1045).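 Also: HCT116 colon tumor cells with beta catenin knocked out; cells exposed to compound for 60 hours.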 In kind it is functional.
The nature of test [15]: growth suppression of PTEN-null colon cells, dose response, cell-based, HCT116 PTEN knockout (AID 1047).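 Also: HCT116 colon tumor cells with PTEN knocked out; cells exposed to compound for 60 hours before readout; potency for loss of cell viability measured by luminescence.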 In kind it is functional.
Another test addresses Phospholipase A2 (Homo sapiens, UniProt P04054). In kind it is functional.
For a further test, the target named is T4, Cysteine protease ATG4B (Homo sapiens, UniProt Q9Y4P1).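 Also: Fluorescence-based dose-response confirmation assay measuring inhibition of ATG4B activity.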
T4 sequence (Q9Y4P1 whole entry): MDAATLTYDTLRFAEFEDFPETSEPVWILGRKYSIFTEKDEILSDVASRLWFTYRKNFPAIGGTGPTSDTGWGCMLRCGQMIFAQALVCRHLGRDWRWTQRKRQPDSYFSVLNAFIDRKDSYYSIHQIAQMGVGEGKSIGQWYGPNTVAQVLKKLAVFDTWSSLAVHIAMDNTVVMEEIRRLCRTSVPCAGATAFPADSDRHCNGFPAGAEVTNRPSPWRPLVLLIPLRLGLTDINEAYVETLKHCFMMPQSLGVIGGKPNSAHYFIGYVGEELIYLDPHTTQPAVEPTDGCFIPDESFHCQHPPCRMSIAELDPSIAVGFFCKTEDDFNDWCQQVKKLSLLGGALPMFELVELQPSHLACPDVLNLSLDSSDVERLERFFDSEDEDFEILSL
The class given is functional.

The target of test [16] is T5, Heat shock factor protein 1 (Mus musculus, UniProt P38532).
T5 sequence (P38532 whole entry): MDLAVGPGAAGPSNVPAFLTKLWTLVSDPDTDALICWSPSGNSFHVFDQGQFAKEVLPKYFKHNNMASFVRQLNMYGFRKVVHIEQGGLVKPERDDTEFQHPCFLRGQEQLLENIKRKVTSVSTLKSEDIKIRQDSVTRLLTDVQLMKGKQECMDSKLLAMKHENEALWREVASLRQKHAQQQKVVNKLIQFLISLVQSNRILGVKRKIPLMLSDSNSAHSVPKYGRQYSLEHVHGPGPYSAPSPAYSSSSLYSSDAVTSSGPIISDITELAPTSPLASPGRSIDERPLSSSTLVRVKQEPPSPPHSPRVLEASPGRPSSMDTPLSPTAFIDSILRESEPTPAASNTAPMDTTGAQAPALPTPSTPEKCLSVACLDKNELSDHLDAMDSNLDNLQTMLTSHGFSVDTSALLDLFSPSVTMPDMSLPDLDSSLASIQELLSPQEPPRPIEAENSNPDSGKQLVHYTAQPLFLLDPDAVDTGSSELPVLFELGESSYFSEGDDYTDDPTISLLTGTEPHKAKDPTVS
Description: HSF1 potentiators in luciferase reporter cells, confirmation, cell-based, NIH3T3, luminescence, dose retest (AID 435004).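 Also: stress induced by proteasome inhibitor MG132 added 30 min after compound; luciferase reporter driven by HSF1 response element in NIH3T3 cells; actives raise luminescence as potentiators of the MG132 stress response.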 The class given is functional. (A reporter such as luciferase makes a cellular process visible.)

Chain of Melanocortin receptor 4 (P32245 whole entry): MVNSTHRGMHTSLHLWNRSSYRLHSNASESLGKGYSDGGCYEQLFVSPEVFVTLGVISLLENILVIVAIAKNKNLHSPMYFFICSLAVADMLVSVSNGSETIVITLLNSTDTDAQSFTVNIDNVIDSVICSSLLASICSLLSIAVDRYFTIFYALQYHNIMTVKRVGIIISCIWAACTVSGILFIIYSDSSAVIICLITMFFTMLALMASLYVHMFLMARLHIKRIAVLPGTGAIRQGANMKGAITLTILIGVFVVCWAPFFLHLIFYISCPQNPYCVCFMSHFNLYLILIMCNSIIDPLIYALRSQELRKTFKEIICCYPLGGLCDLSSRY
Chain of Tumor necrosis factor (P01375 whole entry): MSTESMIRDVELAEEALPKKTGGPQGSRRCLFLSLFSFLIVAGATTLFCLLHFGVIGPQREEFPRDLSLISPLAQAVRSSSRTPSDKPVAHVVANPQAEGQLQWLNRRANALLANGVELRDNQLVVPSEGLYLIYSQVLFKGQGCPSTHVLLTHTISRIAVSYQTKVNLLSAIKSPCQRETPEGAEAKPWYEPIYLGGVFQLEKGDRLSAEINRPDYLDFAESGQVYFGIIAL
Chain of Phospholipase A2 (P04054 whole entry): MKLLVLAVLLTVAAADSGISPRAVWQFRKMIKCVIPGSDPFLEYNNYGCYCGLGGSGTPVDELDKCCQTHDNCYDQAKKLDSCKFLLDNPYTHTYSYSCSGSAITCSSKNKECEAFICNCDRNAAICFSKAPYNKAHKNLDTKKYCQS
Chain of Peroxisome proliferator-activated receptor gamma/Nuclear receptor coactivator 3 (P37231 whole entry): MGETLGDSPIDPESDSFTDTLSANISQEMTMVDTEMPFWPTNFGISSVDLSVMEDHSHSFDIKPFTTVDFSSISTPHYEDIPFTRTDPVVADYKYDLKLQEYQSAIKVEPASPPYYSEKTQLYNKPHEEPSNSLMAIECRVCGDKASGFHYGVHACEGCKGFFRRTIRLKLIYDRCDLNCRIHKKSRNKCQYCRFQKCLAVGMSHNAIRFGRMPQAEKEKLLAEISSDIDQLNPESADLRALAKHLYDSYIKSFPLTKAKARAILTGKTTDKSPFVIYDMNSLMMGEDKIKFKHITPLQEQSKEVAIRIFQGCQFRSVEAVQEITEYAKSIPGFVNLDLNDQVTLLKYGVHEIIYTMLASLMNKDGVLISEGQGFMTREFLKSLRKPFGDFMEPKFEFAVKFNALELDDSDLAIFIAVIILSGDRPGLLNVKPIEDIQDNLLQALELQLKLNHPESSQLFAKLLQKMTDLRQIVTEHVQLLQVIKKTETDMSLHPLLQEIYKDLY
Chain of Peroxisome proliferator-activated receptor gamma/Nuclear receptor coactivator 3 (Q9Y6Q9 whole entry, further chain): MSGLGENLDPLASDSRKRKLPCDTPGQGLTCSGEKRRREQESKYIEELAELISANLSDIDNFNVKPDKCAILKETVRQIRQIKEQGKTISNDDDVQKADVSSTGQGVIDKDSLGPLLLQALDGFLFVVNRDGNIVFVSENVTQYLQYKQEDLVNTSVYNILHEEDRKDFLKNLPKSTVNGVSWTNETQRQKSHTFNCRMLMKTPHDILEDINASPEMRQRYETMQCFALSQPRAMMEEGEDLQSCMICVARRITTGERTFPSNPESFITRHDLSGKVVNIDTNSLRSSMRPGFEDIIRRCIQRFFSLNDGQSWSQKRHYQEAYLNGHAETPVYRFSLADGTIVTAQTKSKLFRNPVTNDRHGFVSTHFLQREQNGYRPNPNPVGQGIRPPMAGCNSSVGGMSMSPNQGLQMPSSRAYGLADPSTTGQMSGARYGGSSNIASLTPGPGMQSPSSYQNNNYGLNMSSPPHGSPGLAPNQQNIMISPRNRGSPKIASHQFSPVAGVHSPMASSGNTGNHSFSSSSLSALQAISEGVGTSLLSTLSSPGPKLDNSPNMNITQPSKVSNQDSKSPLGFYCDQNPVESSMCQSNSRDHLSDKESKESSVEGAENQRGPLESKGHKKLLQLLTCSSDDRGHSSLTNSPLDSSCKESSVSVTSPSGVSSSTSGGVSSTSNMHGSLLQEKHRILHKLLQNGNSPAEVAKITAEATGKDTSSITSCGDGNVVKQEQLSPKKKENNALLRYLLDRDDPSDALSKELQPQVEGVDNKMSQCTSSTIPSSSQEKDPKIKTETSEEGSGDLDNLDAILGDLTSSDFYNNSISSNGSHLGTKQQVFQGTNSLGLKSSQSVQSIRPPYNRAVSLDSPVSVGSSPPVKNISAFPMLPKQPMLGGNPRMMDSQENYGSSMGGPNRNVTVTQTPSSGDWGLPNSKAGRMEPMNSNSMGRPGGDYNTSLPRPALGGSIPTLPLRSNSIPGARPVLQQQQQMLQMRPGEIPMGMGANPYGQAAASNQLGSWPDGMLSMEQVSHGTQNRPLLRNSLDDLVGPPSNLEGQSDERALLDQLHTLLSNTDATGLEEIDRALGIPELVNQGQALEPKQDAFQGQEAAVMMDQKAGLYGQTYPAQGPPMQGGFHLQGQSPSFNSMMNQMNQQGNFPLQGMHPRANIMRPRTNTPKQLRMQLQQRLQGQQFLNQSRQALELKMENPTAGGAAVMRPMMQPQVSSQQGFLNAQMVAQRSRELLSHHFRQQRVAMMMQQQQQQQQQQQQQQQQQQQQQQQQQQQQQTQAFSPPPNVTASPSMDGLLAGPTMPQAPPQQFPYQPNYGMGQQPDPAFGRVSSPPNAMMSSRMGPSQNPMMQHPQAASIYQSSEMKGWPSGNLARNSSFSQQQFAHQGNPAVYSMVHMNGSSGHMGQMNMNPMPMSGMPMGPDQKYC
Chain of Peroxisome proliferator-activated receptor gamma/Nuclear receptor coactivator 1 (P37231 whole entry): as the sequence (P37231 whole entry) above
Chain of Peroxisome proliferator-activated receptor gamma/Nuclear receptor coactivator 1 (Q15788 whole entry, further chain): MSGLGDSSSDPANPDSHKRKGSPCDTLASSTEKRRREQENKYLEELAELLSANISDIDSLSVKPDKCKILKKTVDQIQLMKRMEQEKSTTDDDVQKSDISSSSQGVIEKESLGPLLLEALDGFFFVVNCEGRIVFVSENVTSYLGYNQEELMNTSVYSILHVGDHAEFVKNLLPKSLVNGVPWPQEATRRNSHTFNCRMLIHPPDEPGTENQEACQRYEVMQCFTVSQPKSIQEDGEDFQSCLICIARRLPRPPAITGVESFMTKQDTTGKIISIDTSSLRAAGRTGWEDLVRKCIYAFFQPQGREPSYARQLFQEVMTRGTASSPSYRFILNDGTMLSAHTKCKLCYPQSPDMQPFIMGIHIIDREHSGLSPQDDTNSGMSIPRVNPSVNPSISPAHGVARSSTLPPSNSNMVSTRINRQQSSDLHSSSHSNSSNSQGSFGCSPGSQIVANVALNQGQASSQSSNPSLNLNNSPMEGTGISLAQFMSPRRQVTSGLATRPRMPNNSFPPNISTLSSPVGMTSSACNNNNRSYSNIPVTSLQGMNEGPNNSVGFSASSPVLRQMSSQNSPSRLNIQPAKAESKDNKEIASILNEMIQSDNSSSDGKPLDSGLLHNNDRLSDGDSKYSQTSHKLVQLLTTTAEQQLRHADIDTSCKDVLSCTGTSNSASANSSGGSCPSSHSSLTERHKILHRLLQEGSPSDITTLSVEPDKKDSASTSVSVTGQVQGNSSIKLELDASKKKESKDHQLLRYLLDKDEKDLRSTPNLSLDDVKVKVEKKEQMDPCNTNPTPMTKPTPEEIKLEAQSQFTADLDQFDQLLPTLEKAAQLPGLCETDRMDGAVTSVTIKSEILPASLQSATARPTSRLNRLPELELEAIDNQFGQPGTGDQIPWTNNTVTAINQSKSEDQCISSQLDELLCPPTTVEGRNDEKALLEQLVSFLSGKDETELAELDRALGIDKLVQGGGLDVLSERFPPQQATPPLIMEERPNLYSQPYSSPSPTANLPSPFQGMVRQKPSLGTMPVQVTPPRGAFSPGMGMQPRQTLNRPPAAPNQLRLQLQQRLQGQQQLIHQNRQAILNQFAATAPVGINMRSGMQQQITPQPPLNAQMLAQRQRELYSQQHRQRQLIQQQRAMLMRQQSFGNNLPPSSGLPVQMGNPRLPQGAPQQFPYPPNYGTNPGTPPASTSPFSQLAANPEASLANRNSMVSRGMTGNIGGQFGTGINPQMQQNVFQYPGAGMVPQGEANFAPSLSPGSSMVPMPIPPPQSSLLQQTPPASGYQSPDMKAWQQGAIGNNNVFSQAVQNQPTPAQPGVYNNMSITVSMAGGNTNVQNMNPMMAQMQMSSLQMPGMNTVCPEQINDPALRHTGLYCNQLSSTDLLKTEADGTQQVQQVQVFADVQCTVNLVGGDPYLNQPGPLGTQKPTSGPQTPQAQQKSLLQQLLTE

The IC50 is the concentration needed to halve the response being measured. As to `COc1ccc(-c2cc(C(=O)Nc3cc(OC)cc(C(=O)Nc4cccc(C(F)(F)F)c4)c3)[nH]n2)cc1`, the IC50 (in test [1]; on Melanocortin receptor 4) was > 64.6 µM (inactive) in each case.

In general, EC50 refers to the concentration giving half of the maximal effect. `N#CC1=C(N)S[C@H](C(=O)C23CC4CC(CC(C4)C2)C3)[C@H]1c1ccncc1`: the EC50 with HEK293 [2] and in the test on HEK293 [3] was > 59.7 µM (inactive) throughout.

On to `Cn1c(=O)c2c(ncn2CC(=O)Nc2nc(-c3ccccc3Cl)cs2)n(C)c1=O`, for which the EC50 in test [4] and in test [5] was > 99 µM (inactive) in each case.

Consider `O=C(O)c1cc(-c2ccc(Cl)s2)nc2ccccc12`, for which the EC50 in test [6] is 42.7 µM (inactive); in test [7], 20.7 µM (not active); in [8] it was > 79.4 µM (not active). The IC50 (in test [1]; at Melanocortin receptor 4) was > 64.6 µM (inactive) each time.

Take `O=C(Nc1sc2c(c1C(=O)O)CCCC2)c1ccc(Br)cc1`: the IC50 with HEK293 [9] is > 20 µM (inactive); in test [10], 0.77 µM (active); on Tumor necrosis factor it was 2.25 µM (active).

Turning to `CCOC(=O)c1cnc2ccc(OCC)cc2c1N(C)Cc1ccccc1`, the IC50 (in [1]; at Melanocortin receptor 4) was > 64.6 µM (inactive) in each case.

For the compound `COc1ccc(F)c(-c2nc(CN3CCN(c4ncnc5ccccc45)CC3)c(C)o2)c1`, the figures for the IC50 (in the test on HEK293 [9]; in [10]; at Tumor necrosis factor) were 13.7 µM (active), 3.93 µM (active) and 3.8 µM (active), respectively.

As to `Cc1cccc(C)c1-n1nnnc1SCC(=O)c1c(N)n(C2CC2)c(=O)[nH]c1=O`, the EC50 in test [4] and in test [5] was > 99 µM (inactive) throughout.

`CC(C)(C)N1C(=O)[C@H]2[C@@H](c3ccc(Br)cc3)N3C(=O)N(c4cccc(Br)c4)C(=O)[C@@]3(Cc3ccccc3)[C@H]2C1=O`: the half-maximal effective concentration (EC50) in test [11] was > 60 µM (not active); with HEK293 [2], > 59.7 µM (inactive); in the test with HEK293 [3], > 59.7 µM (inactive); in [12], 2.32 µM (active).

Regarding `CCOC(=O)C1CCCN(C(=O)c2csc(-c3ccc4c(c3)CCO4)n2)C1` (stereo not given), the IC50 in [13] was 13.2 µM (active).

For the compound `CCOC(=O)c1c(NC(=O)CSc2nnc(-c3c[nH]c4ccccc34)n2CCOC)sc2c1CCCCC2`, the EC50 in test [14] was 26.3 µM (active); in the test with HEK293 [2], > 59.7 µM (inactive); in test [15] it was 21.3 µM (active); with HEK293 [3] it was > 59.7 µM (inactive).

`Cc1ccc(C(=O)Nc2nc(-c3ccco3)c(-c3ccco3)s2)o1`: the values for the IC50 on Phospholipase A2 and at Cysteine protease ATG4B were 5.79 µM (active) and 9.23 µM (active), respectively.

Regarding `CCOC(=O)c1ccc(/N=c2\sc(C(=O)OC)cc(=O)n2Cc2ccco2)cc1`, the EC50 in [14] was 5.88 µM (active); in the test with HEK293 [2] it was > 59.6 µM (inactive); in test [16], 16.8 µM (active); in test [15] it was 7.5 µM (active); in the test with HEK293 [3] it was > 59.6 µM (inactive). The IC50 is > 64.5 µM (inactive) in test [1] and > 7.17 µM (active) at Melanocortin receptor 4.

As to `CCn1c(=O)cc(OCC(=O)NC(C)c2ccc3c(c2)OCCO3)c2ccccc21` (stereo not given), the IC50 in test [13] was 15.8 µM (active).

Take `CCOc1ccc(NC(=O)CNC(=O)c2nn(-c3ccc(OC)cc3)c(=O)c3ccccc23)cc1`: the values for the EC50 in [4] and in test [5] were > 99 µM (inactive) and 48.2 µM (inactive), respectively.

As for `CC1CCc2c(sc(NC(=O)c3ccc(Br)cc3)c2C(=O)O)C1` (stereo not given), the IC50 with HEK293 [9] was 4.72 µM (active); in [10], 0.375 µM (active); at Tumor necrosis factor it was 6.82 µM (active).
